US20050245399A1, “Pyrazole derivatives as herbicidal compositions containing them” (ISHIHARA SANGYO KAISHA, LTD., priority 2004, published 2005)

Key:
Assay type in all cases: in vivo
[1] = tested on: barnyardgrass (Echinochloa crus-galli L.): ECHCG; test: Test Example 1 pre-emergence herbicidal activity, ECHCG; conditions: visually observed 20th to 23rd day after application
Source text: (§1) Upland field soil was put into a 1/170,000 ha pot, and seeds of various plants {1. barnyardgrass (Echinochloa crus-galli L.): ECHCG, 2. crabgrass (Digitaria sanguinalis L.): DIGSA, 3. green foxtail (Setaria viridis L.): SETVI, 4. redroot pigweed (Amaranthus retroflexus L.): AMARE, 5. prickly sida (Sida spinosa L.): SEDSP, 6. velvetleaf (Abutilon theophrasti): ABUTH, 7. common cocklebur (Xanthium strumarium L.): XANST, 8. rice (Oryza sativa L.): ORYSA, 9. wheat (Triticum aestivum L.): TRZAX, 10. corn (Zea mays L.): ZEAMX, 11. soybean (Glycine max Merr.): GLXMA} were sown. Then, one day after the sowing, a wettable powder or emulsifiable concentrate having the compound of the present invention formulated in accordance with a usual formulation method, was weighed so that the active ingredient would be a predetermined amount and diluted with water in an amount of 500 L/ha. The herbicide adjusted was applied by a small size sprayer for preemergence treatment. On the 20th to 23rd day after the application of the herbicide, the growth of the respective plants was visually observed, and the herbicidal effects were evaluated by growth controlling degrees (%) ranging from 0 (equivalent to the untreated control) to 100 (complete kill), whereby the results shown in Table 4, were obtained. Compound Nos. in Table 4 correspond to Compound Nos. in Table 1 and 2 given hereinbefore.

[2] = tested on: crabgrass (Digitaria sanguinalis L.): DIGSA; test: Test Example 1 pre-emergence herbicidal activity, DIGSA; conditions: visually observed 20th to 23rd day after application
Source text: as §1

[3] = tested on: green foxtail (Setaria viridis L.): SETVI; test: Test Example 1 pre-emergence herbicidal activity, SETVI; conditions: visually observed 20th to 23rd day after application
Source text: as §1

[4] = tested on: redroot pigweed (Amaranthus retroflexus L.): AMARE; test: Test Example 1 pre-emergence herbicidal activity, AMARE; conditions: visually observed 20th to 23rd day after application
Source text: as §1

[5] = tested on: prickly sida (Sida spinosa L.): SEDSP; test: Test Example 1 pre-emergence herbicidal activity, SIDSP; conditions: visually observed 20th to 23rd day after application
Source text: as §1

[6] = tested on: velvetleaf (Abutilon theophrasti): ABUTH; test: Test Example 1 pre-emergence herbicidal activity, ABUTH; conditions: visually observed 20th to 23rd day after application
Source text: as §1

[7] = tested on: rice (Oryza sativa L.): ORYSA; test: Test Example 1 pre-emergence herbicidal activity, ORYSA; conditions: visually observed 20th to 23rd day after application
Source text: as §1

[8] = tested on: wheat (Triticum aestivum L.): TRZAX; test: Test Example 1 pre-emergence herbicidal activity, TRZAX; conditions: visually observed 20th to 23rd day after application
Source text: as §1

[9] = tested on: corn (Zea mays L.): ZEAMX; test: Test Example 1 pre-emergence herbicidal activity, ZEAMX; conditions: visually observed 20th to 23rd day after application
Source text: as §1

[10] = tested on: soybean (Glycine max Merr.): GLXMA; test: Test Example 1 pre-emergence herbicidal activity, GLXMA; conditions: visually observed 20th to 23rd day after application
Source text: as §1

[11] = tested on: barnyardgrass (Echinochloa crus-galli L.), ECHCG; test: Test Example 2 post-emergence (foliage treatment) herbicidal activity, ECHCG; conditions: 63 g a.i./ha
Source text: (§2) Upland field soil was put into a 1/170,000 ha pot, and seeds of various plants were sown. Then, when the plants reached predetermined leaf stages {1. barnyardgrass (Echinochloa crus-galli L.), ECHCG: 1.1-2.1 leaf stage, 2. crabgrass (Digitaria sanguinalis L.), DIGSA: 1.0-2.0 leaf stage, 3. green foxtail (Setaria viridis L.), SETVI: 1.0-2.2 leaf stage, 4. redroot pigweed (Amaranthus retroflexus L.), AMARE: 0.1-1.5 leaf stage, 5. prickly sida (Sida spinosa L.), SIDSP: 0.1-0.6 leaf stage, 6. velvetleaf (Abutilon theophrasti), ABUTH: 0.1-0.6 leaf stage, 7. common cocklebur (Xanthium strumarium L.), XANST: 0.1 leaf stage, 8. rice (Oryza sativa L.), ORYSA; 1.0-2 leaf stage, 9. wheat (Triticum aestivum L.), TRZAX: 2.3-3.5 leaf stage, 10. corn (Zea mays L.), ZEAMXN 2.1-2.6 leaf stage, 11. soybean (Glycine max Merr.), GLXMA: primary leaf stage}, a wettable powder or emulsifiable concentrate having the compound of the present invention formulated in accordance with a usual formulation method, was weighed so that the active ingredient would be a predetermined amount, and diluted with water in an amount of 500 L/ha. To the diluted solution, 0.1% (v/v) of an agricultural spreader was added. The herbicide adjusted was applied by a small size sprayer for foliage treatment. On the 20th to 23rd day after the application of the herbicide, the growth of the respective plants was visually observed, and the herbicidal effects were evaluated by growth controlling degrees (%) ranging from 0 (equivalent to the untreated control) to 100 (complete kill), whereby the results shown in Table 5, were obtained. Compound Nos. in Table 5 correspond to Compound Nos. in Table 1 and 2 given hereinbefore.

[12] = tested on: crabgrass (Digitaria sanguinalis L.), DIGSA; test: Test Example 2 post-emergence (foliage treatment) herbicidal activity, DIGSA; conditions: 63 g a.i./ha
Source text: as §2

[13] = tested on: green foxtail (Setaria viridis L.), SETVI; test: Test Example 2 post-emergence (foliage treatment) herbicidal activity, SETVI; conditions: 63 g a.i./ha
Source text: as §2

[14] = tested on: prickly sida (Sida spinosa L.), SIDSP; test: Test Example 2 post-emergence (foliage treatment) herbicidal activity, SIDSP; conditions: 63 g a.i./ha
Source text: as §2

[15] = tested on: velvetleaf (Abutilon theophrasti), ABUTH; test: Test Example 2 post-emergence (foliage treatment) herbicidal activity, ABUTH; conditions: 63 g a.i./ha
Source text: as §2

[16] = tested on: rice (Oryza sativa L.), ORYSA; test: Test Example 2 post-emergence (foliage treatment) herbicidal activity, ORYSA; conditions: 63 g a.i./ha
Source text: as §2

[17] = tested on: wheat (Triticum aestivum L.), TRZAX; test: Test Example 2 post-emergence (foliage treatment) herbicidal activity, TRZAX; conditions: 63 g a.i./ha
Source text: as §2

[18] = tested on: corn (Zea mays L.), ZEAMX; test: Test Example 2 post-emergence (foliage treatment) herbicidal activity, ZEAMX; conditions: 63 g a.i./ha
Source text: as §2

[19] = tested on: soybean (Glycine max Merr.), GLXMA; test: Test Example 2 post-emergence (foliage treatment) herbicidal activity, GLXMA; conditions: 63 g a.i./ha
Source text: as §2

SMILES	growth controlling degree, ECHCO [11]	growth controlling degree, DIGSP [12]	growth controlling degree, SETVI [13]	growth controlling degree, SIDSP [14]	growth controlling degree, ABUTH [15]	growth controlling degree, ORYSA [16]	growth controlling degree, TRZAX [17]	growth controlling degree, ZEAMX [18]	growth controlling degree, GLXMA [19]	Pre-emergence Herbicidal Activity ECHCG (growth controlling degree) ([1]; Rate 63 g a.i./ha)	Pre-emergence Herbicidal Activity DIGSP (growth controlling degree) ([2]; Rate 63 g a.i./ha)	Pre-emergence Herbicidal Activity SETVI (growth controlling degree) ([3]; Rate 63 g a.i./ha)	Pre-emergence Herbicidal Activity AMARE (growth controlling degree) ([4]; Rate 63 g a.i./ha)	Pre-emergence Herbicidal Activity SIDSP (growth controlling degree) ([5]; Rate 63 g a.i./ha)	Pre-emergence Herbicidal Activity ABUTH (growth controlling degree) ([6]; Rate 63 g a.i./ha)	Pre-emergence Herbicidal Activity ORYSA (growth controlling degree) ([7]; Rate 63 g a.i./ha)	Pre-emergence Herbicidal Activity TRZAX (growth controlling degree) ([8]; Rate 63 g a.i./ha)	Pre-emergence Herbicidal Activity ZEAMX (growth controlling degree) ([9]; Rate 63 g a.i./ha)	Pre-emergence Herbicidal Activity GLXMA (growth controlling degree) ([10]; Rate 63 g a.i./ha)	further results
COc1c(Cl)cc(F)c(-c2nn(C)c(OC(F)F)c2Cl)c1NC(=O)C(C)c1ccccc1 (centres unmarked) [Compound 1-41]	20%	30%	40%	100%	100%	30%	30%	0%	40%											Pre-emergence Herbicidal Activity ECHCG (growth controlling degree) ([1]; Rate 10 g a.i./ha): 30%; Pre-emergence Herbicidal Activity DIGSP (growth controlling degree) ([2]; Rate 10 g a.i./ha): 50%; Pre-emergence Herbicidal Activity SETVI (growth controlling degree) ([3]; Rate 10 g a.i./ha): 100%; Pre-emergence Herbicidal Activity AMARE (growth controlling degree) ([4]; Rate 10 g a.i./ha): 50%; Pre-emergence Herbicidal Activity SIDSP (growth controlling degree) ([5]; Rate 10 g a.i./ha): 40%; Pre-emergence Herbicidal Activity ABUTH (growth controlling degree) ([6]; Rate 10 g a.i./ha): 0%; Pre-emergence Herbicidal Activity ORYSA (growth controlling degree) ([7]; Rate 10 g a.i./ha): 0%; Pre-emergence Herbicidal Activity TRZAX (growth controlling degree) ([8]; Rate 10 g a.i./ha): 0%; Pre-emergence Herbicidal Activity ZEAMX (growth controlling degree) ([9]; Rate 10 g a.i./ha): 0%; Pre-emergence Herbicidal Activity GLXMA (growth controlling degree) ([10]; Rate 10 g a.i./ha): 0%
COc1c(Cl)cc(F)c(-c2nn(C)c(OC(F)F)c2Cl)c1NC(=O)OCC1CCCCC1 [Compound 1-73]	100%	10%	70%	100%	100%	50%	50%	10%	50%	30%	20%	60%	100%	20%	10%	10%	0%	0%	0%	
COc1c(Cl)cc(F)c(-c2nn(C)c(OC(F)F)c2Cl)c1NC(=O)C=Cc1ccccc1F [Compound 1-256]	60%	60%	90%	100%	100%	80%	60%	30%	60%	60%	90%	70%	100%	60%	70%	30%	10%	0%	0%	
COc1c(Cl)cc(F)c(-c2nn(C)c(OC(F)F)c2Cl)c1NC(=O)C=Cc1cccc(F)c1 [Compound 1-257]	60%	50%	70%	100%	100%	40%	50%	30%	40%	30%	10%	10%	100%	60%	10%	20%	0%	0%	0%	
COc1c(Cl)cc(F)c(-c2nn(C)c(OC(F)F)c2Cl)c1NC(=O)C=Cc1ccc(F)cc1 [Compound 1-258]	60%	40%	60%	100%	100%	40%	10%	10%	20%	10%	70%	30%	100%	70%	70%	40%	0%	0%	0%	
